From patent US8633319B2, “7-(1H-pyrazol-4-yl)-1,6-naphthyridine compounds as Syk inhibitors” (Glaxo Group Limited, priority 2010, dated 2014)
Values joined by “and” are separate entries in the source; they are usually repeats but may differ in a detail not shown here. Equal entries are not always repeated. Where two headings read alike, the source gives them in different places.

How the values were obtained:
SYK lysate = biological target: T1, SYK lysate (Homo sapiens, UniProt P43405); assay: Basic Syk Enzyme Activity; type: biochemical; details: read-out: average pIC50 (converted)
T1 construct: Stimulation of Ramos Cells with Anti-IgM Ab to Produce Syk & Preparation of Lysates; endogenous in cells; host or cells: Ramos B cells (human Burkitt's lymphoma, clone 296.4C10, ATCC), stimulated with anti-IgM and lysed in 1% Triton X-100
Procedure: 3 μl of SYK lysate diluted 16-fold in assay buffer (20 mM TRIS pH 7.4, 0.01% BSA, 0.1% Pluronic F-68) was added to wells containing 0.1 μl of various concentrations of compound or DMSO vehicle (1.7% final) in a Greiner low volume 384 well black plate. Following 15 min pre-incubation at room temperature, the reaction was initiated by the addition of 3 μl of substrate reagent containing Y7 Sox peptide, (Invitrogen Cat. # KNZ3071, 5 μM final), ATP (35 μM final) and MgCl2 (10 mM final) in assay buffer. The reaction was incubated at room temperature before measuring fluorescence intensity (λex 360/λem 485) on an Envision plate reader (Perkin Elmer Life Sciences, Waltham, Mass., USA) at 15 min and 55 min post-substrate addition.
Ramos B Cells (human B cells of Burkitt's lymphoma, clone 296.4C10, ATCC) were cultured in suspension in growth medium (RPMI-1640, Sigma; supplemented with 2 mM L-glutamine, Gibco; 10 mM Hepes, Sigma; 1 mM sodium pyruvate, Sigma; 10% v/v heat-inactivated FCS, Gibco). Cells were grown in Corning Cellstacks (6360 cm^2) in 1 liter volume and viability and cell density were monitored daily. Cells were maintained at <1.5×10e6/ml and >92% viability.
Cells were stimulated at 20×10^6 cells/ml using 15 ug/ml (final concentration) anti-IgM antibody. Following harvest (as described above), a total of 4×10^9 cells were resuspended in 180 ml pre-warmed (37° C.) DPBS in a Corning 500 ml centrifuge bottle. 20 ml anti-IgM antibody at 150 ug/ml were added to each 500 ml centrifuge bottle (working stock made up in DPBS pre-warmed to 37° C.). Cells were incubated for exactly 5 min at 37° C. following the addition of anti IgM antibody. Following 5 min stimulation, 300 ml ice-cold DPBS were added to each bottle to stop the stimulation (temperature drops to ˜12° C.) then cells were centrifuged at 2000 rpm (Sorvall Legend RT+ centrifuge—pre-chilled to 4° C.). Cells were washed by resuspension in ice-cold DPBS and centrifugation as above. The cell pellet was then lysed in ice-cold lysis buffer containing 1% triton-x-100 at a ratio of 150 ul/1×10^7 cells (i.e. 48 ml lysis buffer). Following the addition of lysis buffer, the cells were pipetted up & down & kept on ice for 15 min. The clarified lysate was then obtained by centrifugation (Sorvall Evolution RC (SLA-1500 rotor, ˜20,000 g (˜14,500 rpm), 45 min, 4° C.).
Lysate was aliquoted, snap-frozen on dry-ice & stored at −80° C. prior to assay.
Lysis Buffer: 50 mM TRIS pH7.5+150 mM NaCl+1% Triton-X-100+2 mM EGTA+1:100 dilution inhibitor cocktails (phosphatase inhibitor cocktail set II, calbiochem cat no. 524625 & protease inhibitor cocktail set V, calbiochem cat no. 539137)

Whole blood B cells = assay: CD69 Whole Blood Assay; type: cell-based; details: Homo sapiens, B-cell, anti-IgM stimulated
Procedure: Whole blood B cells are stimulated ex-vivo using anti-IgM. […] The subsequent autophosphorylation of Syk leads to initiation of a signalling cascade resulting in B cell activation as indicated by expression of the activation marker CD69 on the cell surface. CD20/CD69+ve whole blood B cells are detected by flow cytometry.
100 μl heparinised human blood was added to a 5 ml polypropylene tube containing 1 μl appropriately diluted compound solution and incubated for 25 min at 37° C. with 5% CO2. B cells were stimulated with 10 μl Fab′2 fragments of goat anti-human IgM (43 μg/ml final concentration) for a further 3.5 h under the conditions previously described. The red blood cells were lysed and all other cells fixed by the addition of 2 ml Lyse/Fix buffer for 10 min at room temperature.
The cells were stained using a cocktail of mouse anti-human CD20 FITC and mouse anti-human CD69 PE conjugated antibodies. CD20/CD69+ve B cells present in the sample were detected by flow cytometry.
Compound was prepared as a 10 mM stock in DMSO, further diluted down in DMSO to 1 mM and a dilution series prepared in DMSO using 7 successive 3-fold dilutions to give the final concentration range to be tested of 1×10^−5 to 4.57×10^−9M. Compound dilutions were prepared using the Biomek 2000 automated robotic pipetting system.

[1] = test system: Salmonella typhimurium strains and Escherichia coli; assay: Bacterial Mutation Screening Assay (Ames Test); details: as the free base; presence and absence of S9-mix
Description: The bacterial mutation assay (Ames Test) is a short-term reverse mutation assay specifically designed to detect a wide range of chemical substances that can produce genetic damage that leads to gene mutations (base pair substitutions and frameshift mutations).
The test employs several histidine dependent Salmonella typhimurium strains and several tryptophan dependent strains of Escherichia coli each carrying different mutations in various genes in the histidine or tryptophan operon respectively. These mutations act as hot spots for mutagens that cause DNA damage via different mechanisms.
Briefly, bacteria are cultured for 10 h prior to the test. Top agar is supplemented with trace amounts of histidine, biotin, and tryptophan and aliquoted, before adding the required test article, vehicle or positive control followed by the appropriate bacterial suspension, and either an exogenous mammalian oxidative metabolism system (S9-mix) or buffer solution. The final mixture is poured over minimal agar plates which are then inverted and incubated before scoring for revertant colonies.
Bacterial Strains routinely used are Salmonella typhimurium strains TA98, TA100 TA1535 and TA1537 and Escherichia coli WP2 uvrA (pKM101).
Assays are performed in the presence and absence of an exogenous mammalian oxidative metabolising system (S9-mix), to mimic mammalian metabolism.
The highest concentration tested is one that allows maximum exposure up to 5000 μg/plate for freely soluble compounds, or the limit of solubility or toxicity (whichever is the lower). If compound solubility is a limiting factor, the maximum concentration chosen will be the lowest concentration at which compound precipitate is observed by eye on treatment plates at the end of the incubation period.
A single mutation assay (using the plate incorporation methodology) is conducted in the presence and absence of S9-mix (consisting of 4 replicate plates for vehicle controls and 2 replicate plates for the positive controls and test article).
Plates are usually scored electronically for bacterial colony formation following inspection of the plates for signs of toxicity (i.e. reduced growth (diminution) of background lawn, the presence of pin-dot/pseudorevertant colonies and/or a reduction in colony numbers). Plates will also be evaluated (by eye) for compound precipitation. […]
The number of colonies on each plate is recorded and mean values calculated for each concentration of test article used. Mean values are also be expressed as a ratio of the mean concurrent vehicle control value (i.e. fold increase). […]

[2] = as the free base, read-out: average IC50
[3] = hydrochloric acid salts, read-out: average IC50
[4] = hydrochloric acid salts, read-out: average pIC50 (converted)

CCn1cc(-c2cc3ncccc3c(OC[C@]3(F)CCCNC3)n2)cn1 [Example 4, 7-(1-Ethyl-1H-pyrazol-4-yl)-5-({[(3S)-3-fluoro-3-piperidinyl]methyl}oxy)-1,6-naphthyridine]
IC50 (SYK lysate; as the free base): ≤ 100 nM and 7.94 nM
IC50 (SYK lysate; hydrochloric acid salts): ≤ 316 nM
IC50 (Whole blood B cells; [2]): < 1000 nM
IC50 (Whole blood B cells; [3]): < 1000 nM
IC50 (Whole blood B cells; [4]): ≤ 1000 nM
Ames test result [1]: negative

COCn1cc(-c2cc3ncccc3c(NC[C@]3(F)CCCNC3)n2)cn1 [Example 3, N-{[(3S)-3-Fluoro-3-piperidinyl]methyl}-7-{1-[(methyloxy)methyl]-1H-pyrazol-4-yl}-1,6-naphthyridin-5-amine]
IC50 (SYK lysate; as the free base): ≤ 100 nM and 63.1 nM
IC50 (SYK lysate; hydrochloric acid salts): ≤ 316 nM
IC50 (Whole blood B cells; [2]): < 1000 nM
IC50 (Whole blood B cells; [3]): < 1000 nM
IC50 (Whole blood B cells; [4]): ≤ 1000 nM
Ames test result [1]: negative

CCn1cc(-c2cc3ncccc3c(NC[C@]3(F)CCCNC3)n2)cn1 [Example 1, 7-(1-Ethyl-1H-pyrazol-4-yl)-N-{[(3S)-3-fluoro-3-piperidinyl]methyl}-1,6-naphthyridin-5-amine]
IC50 (SYK lysate; as the free base): ≤ 100 nM and 25.1 nM
IC50 (SYK lysate; hydrochloric acid salts): ≤ 316 nM
IC50 (Whole blood B cells; [2]): < 1000 nM
IC50 (Whole blood B cells; [3]): < 1000 nM
IC50 (Whole blood B cells; [4]): ≤ 1000 nM
Ames test result [1]: negative

CC(C)(C)n1cc(-c2cc3ncccc3c(NC[C@]3(F)CCCNC3)n2)cn1 [Example 2, 7-[1-(1,1-Dimethylethyl)-1H-pyrazol-4-yl]-N-{[(3S)-3-fluoro-3-piperidinyl]methyl}-1,6-naphthyridin-5-amine]
IC50 (SYK lysate; as the free base): ≤ 100 nM and 20 nM
IC50 (SYK lysate; hydrochloric acid salts): ≤ 316 nM
IC50 (Whole blood B cells; [2]): < 1000 nM
IC50 (Whole blood B cells; [3]): < 1000 nM
IC50 (Whole blood B cells; [4]): ≤ 1000 nM
Ames test result [1]: negative
